For experiment [1], the target named is T1, VRAC (SWELL1/LRRC8A-containing volume-regulated anion channel) (Homo sapiens, UniProt Q8IWT6).
T1 sequence (Q8IWT6 1-810): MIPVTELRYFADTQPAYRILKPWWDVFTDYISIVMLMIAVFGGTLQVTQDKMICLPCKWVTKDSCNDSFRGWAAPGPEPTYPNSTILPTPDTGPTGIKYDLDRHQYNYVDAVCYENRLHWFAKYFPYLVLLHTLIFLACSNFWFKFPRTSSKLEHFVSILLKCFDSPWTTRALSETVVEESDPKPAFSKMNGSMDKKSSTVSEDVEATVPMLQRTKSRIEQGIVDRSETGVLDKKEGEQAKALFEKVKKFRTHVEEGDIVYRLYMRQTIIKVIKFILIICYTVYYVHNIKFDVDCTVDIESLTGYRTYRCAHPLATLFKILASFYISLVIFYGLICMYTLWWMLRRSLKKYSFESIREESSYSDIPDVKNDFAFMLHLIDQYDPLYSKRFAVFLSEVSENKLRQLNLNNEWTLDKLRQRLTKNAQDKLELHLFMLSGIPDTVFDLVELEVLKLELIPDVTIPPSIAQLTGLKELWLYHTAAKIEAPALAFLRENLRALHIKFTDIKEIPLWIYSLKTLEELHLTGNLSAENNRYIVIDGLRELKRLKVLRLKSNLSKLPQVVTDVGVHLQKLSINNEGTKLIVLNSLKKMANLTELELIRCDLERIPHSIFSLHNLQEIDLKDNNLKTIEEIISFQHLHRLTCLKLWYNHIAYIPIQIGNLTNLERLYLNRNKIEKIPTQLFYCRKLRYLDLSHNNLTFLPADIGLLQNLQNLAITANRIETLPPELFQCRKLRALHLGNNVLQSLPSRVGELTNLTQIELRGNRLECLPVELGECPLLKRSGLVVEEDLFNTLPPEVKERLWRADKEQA
Put plainly: whole-cell patch clamp of hypotonicity-induced VRAC currents. Format: cell-based. Background: The patch-clamp technique gives a direct electrical read-out from membranes.

For experiment [2], the target named is T2, VRAC (Swell1/Lrrc8a-containing volume-regulated anion channel) (Mus musculus, UniProt Q80WG5).
T2 sequence (Q80WG5 1-810): T1 sequence (Q8IWT6 1-810) with P75S, G76S, I86V, I276A, A591V, I715V, T722A, N792S
Put plainly: whole-cell patch clamp of hypotonicity-induced VRAC currents in BV2 microglia. Format: cell-based.

Positions count from the first letter of the chain named.

Usually IC50 stands for the concentration that inhibits the measured activity by half. Read a high IC50 as a need for much substance.

With `O=c1oc2ccccc2c(O)c1Cc1c(O)c2ccccc2oc1=O` [dicumarol], the IC50 in experiment [1] came to 3.8 µM; in experiment [2] it was 4.1 µM.

Turning to `COc1cc(C(=O)NS(=O)(=O)c2ccccc2C)ccc1Cc1cn(C)c2ccc(NC(=O)OC3CCCC3)cc12` [zafirlukast], the IC50 in experiment [1] was 4.9 µM.
